Measurements as given in patent US8088366B2, “Attractant for Indian meal moth larve” (The United States of America, as represented by the …, priority 2009, dated 2012).

How the values were obtained:
[1] = test system: Plodia interpunctella neonatal larvae; assay: Bioassay chamber choice test of larval attraction, neonatal larvae; format: in vivo; settings: serially diluted, bioassayed over the range of 16 pg to 500 pg on 3MM pad; FIGS. 7 and 8
Description: (§1) To isolate the attractant, the inventors bioassayed multiple materials that potentially comprised effective attractants. The bioassay chamber 10 was comprised of a Lincoln Wear-Ever (Fort Wayne, Ind.) baking pan (No. 9002) having the dimensions of 65 cm long, 45 cm wide and 2.5 cm high. A similarly sized Carb-x plastic top 12 (Rubbermaid Commercial Products Inc., Winchester, Va.) was modified for this application. (Note that FIG. 1 is a (top) plan view so that only the Carb-x plastic top 12 of the bioassay chamber is shown.)
The rows of three holes were ˜8 cm from the outer edge at the ends and ˜10 cm from the outer edge on the two sides, which spaced the three holes ˜12.5 cm apart, center to center. […]
Plodia larvae used in this study were reared on a standardized Plodia diet (Silhacek and Miller, 1972) at 30° C., 70% r.h. and a 16L:8D photoperiod as described previously (Silhacek et al, 2003) using eggs collected over a 1 h interval during the 2 h period preceding the scotophase. […] The samples were then removed, mixed with Plodia diet and the larvae counted after two days of additional growth.
In the first set of tests, the relative attractiveness of the three major, commercially available kernel tissue fractions of wheat were assessed. […]

[2] = test system: Plodia interpunctella larvae (0.6 mg penultimate instar to mid-last instar); assay: Bioassay chamber choice test of larval attraction, older larvae (early penultimate, newly molted last and mid-last instar); format: in vivo
Description: as §1
The rows of three holes were ˜8 cm from the outer edge at the ends and ˜10 cm from the outer edge on the two sides, which spaced the three holes ˜12.5 cm apart, center to center. A 3.0 cm diameter hole 16 was drilled in the center of the top 12 to accept a bulkhead fitting 18 (# 16422, United States Plastic Corp., Lima, Ohio) complete with a right angle connection and a serrated vacuum hose 20. During the bioassay process, air was drawn into the chamber 10 through the six air inlet holes 14 and removed from the chamber 10 through the fitting 18 and vacuum hose 20 in the direction of the arrow 22.
Before each bioassay, the chambers 10 were washed with a dilute solution of Micro-90 detergent (International Products Corp, Burlington, N.J.), rinsed 3 times with tap water, 1 time with distilled water, 1 time with MeOH and air dried. Test samples were placed in flat polypropylene weigh boats. An individual sample was positioned at each end of the chamber 10 under the middle air inlets.
The six air inlet holes 14 were fitted with syringe ports (Part # MTL230-6, Value Plastics, Inc., Fort Collins, Colo.) and six 10 cc syringes 24 filled with activated charcoal were affixed. Low-density foam weather strip (6.3 mm thick×12.7 mm wide, not shown in FIG. 1) was attached along the four edges of the top 12 to form an airtight seal when placed on the bottom pan and tightened together with four Sparco Binder Clips, # 87010 (2″ wide, 1″ capacity) 26. A vacuum means (not shown) was attached to the vacuum hose 20 was adjusted to give an exit flow of ˜53 cc/min or one chamber volume (˜2.41) exchange every 45 min during the bioassay.
In addition to neonates, three other age groups of larvae were selected from the standardized cultures for bioassay to determine if they were attracted to the wheat grain and its components. These groups included newly molted penultimate instar (0.6±0.1 mg), newly molted last instar (3.2±0.2 mg) and mid-last instar (7.8±0.8 mg) (see Silhacek and Miller, 1972). In these assays, 10 larvae of the specified age, stage and weight range were transferred to the 16 mm sample cup at the beginning of the scotophase and immediately placed at the release point in the equilibrated bioassay chamber. The cover was secured to the chamber bottom and the larvae were given three hours to select the sample of choice and then the larvae on each sample were counted.
In the first set of tests, the relative attractiveness of the three major, commercially available kernel tissue fractions of wheat were assessed. The tissues were crude bran (Flint River Mills, Bainbridge, Ga.), Kretschmer's toasted wheat germ (Quaker Oats Co., Chicago, Ill.) and endosperm (organically grown, unbleached, unenriched all-purpose flour, Wards Super Market, Gainesville, Fla.).
The attractiveness of whole kernel wheat volatiles was examined by suspending a packet of whole wheat in the air stream entering the bioassay chamber over a sample of NASE. […]

CCCCCc1ccco1 [2-pentyl furan] was tested, and the attractancy to neonates [1] was “attractive at all levels tested between 32 and 500 pg”, the “attraction of older larvae at 31 pg” value ([2]; 31 pg on 3MM scintillation pad, three older age groups) was “Moderate but not significant attraction” and the “attraction of older larvae at 250-500 pg” value ([2]; 250-500 pg, some larvae captured in non-attractive NASE sample) was “Strong attraction”. For the same compound, the “attraction of all larval stages when bioassayed” value ([2]; all larval stages of Plodia) was “attracted to picogram quantities”, the “amount range of peak attraction of older larvae” value ([2]; three older age groups, amount on 3MM pad) was 62.5 to 125 pg and the “larval attraction by stage of development” value ([2]; through the middle (7.0-8.5 mg) of the final larval instar) was “strong”.
In the case of CCCCCC=O [Hexanal, reference compound], the attractancy to neonates [1] is reported as “not attractive”.
